Measured values as given in patent US9862711B2, “Pyrazine derivatives as phosphatidylinositol 3-kinase inhibitors” (NOVARTIS AG, priority 2014, dated 2018).

target: PI 3-kinase delta (Homo sapiens (Human), UniProt O00329); test: Cellular p-Akt (S473) SureFire assay, Rat-1_PI3Kdelta cells (Assay J); assay type: cell-based; conditions: p-AKT (Ser473) in Rat-1 cells expressing myr-HA-hp110 delta, 1 h compound; read-out: Assay J PI3Kδ IC50
Text: Cellular Assays for PI 3-Kinase Alpha (H), Beta (I) and Delta (J)
AlphaScreen (Amplified Luminescent Proximity Homogeneous Assay, ALPHA, Perkin Elmer) is a non-radioactive bead-based proximity assay technology to study biomolecular interactions in a homogenous microtiter plate format. The brand name SureFire denotes AlphaScreen assays that are adapted to quantify the phosphorylation of endogenous cellular proteins in cell lysates, by using matched antibody pairs, which consist of an anti-phospho-kinase and an anti-kinase antibody. The assay allows characterization of kinase signaling in cells as well as measurement of kinase inhibitor effects.
Rat-1 cell lines stably overexpressing activated PI 3-kinase class I isoforms Rat-1 pBABEpuro Myr-HA-hp110 delta clone 5 (Rat-1_PI3Kdelta) and Rat-1 pBABEpuro Myr-HA-hp110 alpha clone 6 (Rat-1_PI3Kalpha) and Rat-1 pBABEpuro Myr-HA-hp110 beta (Rat-1_PI3beta) were cultivated in complete growth medium (DMEM high glucose, 10% (v/v) fetal bovine serum, 1% (v/v) MEM NEAA, 10 mM HEPES, 2 mM L-glutamine, puromycin (10 μg/mL for Rat-1_PI3Kdelta and Rat-1_PI3Kalpha, 4 ug/mL for Rat-1_PI3beta), 1% (v/v) Pen/Strep) to 90% confluency at 37° C./5% CO2/90% humidity in a humidified CO2 incubator and were split twice a week. The following materials were used for p-AKT(5473) detection in Rat-1 cell lysates: Dulbecco's modified Eagle's medium (DMEM) high glucose (Gibco Invitrogen, Basel, Switzerland, Cat. No. 41965), heat inactivated fetal bovine serum, qualified (HI FBS; Gibco Invitrogen, Basel, Switzerland, Lot. No. 16140), MEM non essential amino acids (NEAA; Gibco Invitrogen, Basel, Switzerland, Cat. No. 11140), HEPES (Gibco Invitrogen, Basel, Switzerland, Cat. No. 15630), penicillin/streptomycin (Pen/Strep, 100×; Gibco Invitrogen, Basel, Switzerland, Cat. No. 15140-122), L-glutamine (Gibco Invitrogen, Basel, Switzerland, Cat. No. 25030), puromycin (Sigma Aldrich, Buchs, Switzerland, Cat. No. P9620), DMSO (MERCK, Dietikon, Switzerland, Cat. No. 8.02912.2500), H2O, MilliQ-H2O unless otherwise stated (MILLIPORE QGARDOOR1, Millipore, Zug, Switzerland), bovine serum albumine (BSA; Sigma Aldrich, Buchs, Switzerland Cat. No. A8412), SureFire p-Akt 1/2 (Ser473) Assay Kit (Perkin Elmer, Schwerzenbach, Switzerland, Cat. No. TGRAS50K).
The p-Akt (S473) SureFire assay measures the phosphorylation of endogenous cellular Akt 1/2 at Ser473 in cell lysates. Using Rat-1 cells stably expressing myr-HA-tagged versions of the human PI3Kdelta, PI3Kalpha, or PI3Kbeta p110 catalytic subunit isoforms, the assay was developed as a two-plate protocol in a 384-well format.
For compound testing, the cells were seeded at a density of 4000 (Rat-1_PI3Kdelta), 7500 (Rat-1_PI3Kalpha), or 6200 (Rat-1_PI3Kbeta) cells in 20 μl complete growth medium into cell culture treated 384-well plates and were grown at 37° C./5% CO2/90% humidity for 24 h. Shortly before compound transfer, the complete medium was removed, 30 μl assay buffer (DMEM high glucose, 1×MEM NEAA, 10 mM HEPES, 2 mM L-glutamine, 0.1% (w/v) BSA) was added and 10 μl of the compound predilutions were transferred to the cells. After treatment with compound for 1 h, the cells were lysed by the addition of 20 μl lysis buffer supplemented with 0.24% (w/v) BSA. Detection of p-AKT (Ser473) was performed with the SureFire p-Akt 1/2 (Ser473) Assay Kit according to the manufacturer's instructions using 5 ul of cell lysate in a total detection volume of 12 μl.
IC50 values of the percentage inhibition of each compound at 8 concentrations (usually 10, 3.0, 1.0, 0.3, 0.1, 0.030, 0.010 and 0.003 μM) n=2 were derived by fitting a sigmoidal dose-response curve to a plot of assay readout over inhibitor concentration as described. All fits were performed with the program XLfit4 (ID Business Solutions, Guildford, UK).

Sequence of PI 3-kinase delta (O00329 whole entry): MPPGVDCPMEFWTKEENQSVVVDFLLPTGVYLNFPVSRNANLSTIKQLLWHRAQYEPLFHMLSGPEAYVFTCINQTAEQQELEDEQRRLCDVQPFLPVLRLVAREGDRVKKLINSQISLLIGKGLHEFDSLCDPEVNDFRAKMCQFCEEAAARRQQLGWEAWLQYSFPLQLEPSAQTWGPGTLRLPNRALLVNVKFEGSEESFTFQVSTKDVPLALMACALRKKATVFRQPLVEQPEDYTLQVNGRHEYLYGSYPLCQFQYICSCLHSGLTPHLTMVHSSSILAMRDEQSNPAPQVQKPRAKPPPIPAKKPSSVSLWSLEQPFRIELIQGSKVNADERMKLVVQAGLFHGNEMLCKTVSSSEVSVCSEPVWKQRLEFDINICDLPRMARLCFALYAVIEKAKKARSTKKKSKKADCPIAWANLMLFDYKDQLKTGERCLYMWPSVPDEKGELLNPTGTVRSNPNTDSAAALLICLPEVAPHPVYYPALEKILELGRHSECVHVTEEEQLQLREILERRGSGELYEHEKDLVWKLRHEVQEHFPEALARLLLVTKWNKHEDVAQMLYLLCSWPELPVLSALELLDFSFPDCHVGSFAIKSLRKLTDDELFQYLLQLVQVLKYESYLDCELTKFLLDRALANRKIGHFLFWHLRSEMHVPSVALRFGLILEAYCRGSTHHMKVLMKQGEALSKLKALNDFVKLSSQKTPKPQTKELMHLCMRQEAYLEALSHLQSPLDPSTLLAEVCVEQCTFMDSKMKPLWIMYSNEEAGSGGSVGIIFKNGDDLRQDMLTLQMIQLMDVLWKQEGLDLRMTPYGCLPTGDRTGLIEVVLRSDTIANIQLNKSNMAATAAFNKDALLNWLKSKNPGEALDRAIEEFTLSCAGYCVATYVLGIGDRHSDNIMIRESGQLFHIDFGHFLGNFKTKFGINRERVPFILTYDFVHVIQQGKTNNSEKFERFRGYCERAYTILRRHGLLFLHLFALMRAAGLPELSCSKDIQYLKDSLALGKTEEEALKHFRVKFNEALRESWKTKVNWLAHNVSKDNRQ
Sequence of PI 3-kinase delta (Q63787 whole entry partner): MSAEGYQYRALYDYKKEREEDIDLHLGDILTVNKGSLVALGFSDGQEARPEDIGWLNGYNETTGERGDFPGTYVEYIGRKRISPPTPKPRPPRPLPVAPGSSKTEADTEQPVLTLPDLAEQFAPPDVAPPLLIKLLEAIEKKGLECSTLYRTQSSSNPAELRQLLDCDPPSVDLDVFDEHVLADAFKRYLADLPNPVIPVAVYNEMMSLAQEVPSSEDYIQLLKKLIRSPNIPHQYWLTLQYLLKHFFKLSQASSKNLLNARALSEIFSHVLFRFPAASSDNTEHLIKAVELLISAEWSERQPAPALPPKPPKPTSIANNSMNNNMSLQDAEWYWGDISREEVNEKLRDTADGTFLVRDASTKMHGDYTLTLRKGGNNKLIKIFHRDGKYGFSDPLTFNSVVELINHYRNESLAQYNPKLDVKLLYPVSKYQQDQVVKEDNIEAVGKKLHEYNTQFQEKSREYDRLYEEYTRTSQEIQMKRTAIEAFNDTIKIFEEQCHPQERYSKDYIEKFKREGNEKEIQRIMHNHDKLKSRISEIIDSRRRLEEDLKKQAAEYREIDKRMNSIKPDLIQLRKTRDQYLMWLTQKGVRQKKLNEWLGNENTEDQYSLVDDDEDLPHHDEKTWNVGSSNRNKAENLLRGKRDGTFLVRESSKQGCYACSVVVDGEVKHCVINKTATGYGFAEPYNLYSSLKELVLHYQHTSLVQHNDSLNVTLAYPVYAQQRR

| SMILES | IC50 [nM] |
| --- | --- |
| Cc1ccc(S(=O)(=O)NCC(C)(C)O)cc1-c1cncc(-c2cn(C)nc2C)n1 [Example 2, 3-[6-(1,3-Dimethyl-1H-pyrazol-4-yl)-pyrazin-2-yl]-N-(2-hydroxy-2-methyl-propyl)-4-methyl-benzenesulfonamide] | 367 |
| Cc1ccc(S(=O)(=O)NCCC(C)(C)O)cc1-c1cncc(-c2cn(C)nc2C)n1 [Example 3, 3-[6-(1,3-Dimethyl-1H-pyrazol-4-yl)-pyrazin-2-yl]-N-(3-hydroxy-3-methyl-butyl)-4-methyl-benzenesulfonamide] | 1370 |
| Cc1ccc(S(=O)(=O)NCC2(C)COC2)cc1-c1cncc(-c2cn(C)nc2C)n1 [Example 4, Trans 3-[6-(1,3-Dimethyl-1H-pyrazol-4-yl)-pyrazin-2-yl]-4-methyl-N-(3-methyl-oxetan-3-ylmethyl)-benzenesulfonamide] | 285 |
| Cc1ncc(-c2cncc(-c3cc(S(=O)(=O)N[C@H]4CC[C@H](O)CC4)ccc3C)n2)s1 [Example 5, Trans N-(4-Hydroxycyclohexyl)-4-methyl-3-(6-(2-methylthiazol-5-yl)pyrazin-2-yl)benzenesulfonamide] | 540 |
| Cc1ccc(S(=O)(=O)NCCC(C)(C)O)cc1-c1cncc(-c2cnn(CCN3CCOCC3)c2)n1 [Example 9, N-(3-Hydroxy-3-methyl-butyl)-4-methyl-3-{6-[1-(2-morpholin-4-yl-ethyl)-1H-pyrazol-4-yl]-pyrazin-2-yl}-benzenesulfonamide] | 1680 |
| Cc1ccc(S(=O)(=O)NCCC(C)(C)O)cc1-c1cncc(-c2cn(CCN3CCOCC3)nc2C)n1 [Example 10, N-(3-Hydroxy-3-methyl-butyl)-4-methyl-3-{6-[3-methyl-1-(2-morpholin-4-yl-ethyl)-1H-pyrazol-4-yl]-pyrazin-2-yl}-benzenesulfonamide] | 771 |
| Cc1ccc(S(=O)(=O)N[C@H]2CC[C@H](O)CC2)cc1-c1cncc(-c2cccnc2)n1 [Example 11, Trans N-(4-Hydroxy-cyclohexyl)-4-methyl-3-(6-pyridin-3-yl-pyrazin-2-yl)-benzenesulfonamide] | 1050 |
